What was measured:
[1] = tested on: Cytochrome c, Bax, Bcl-2, Caspase-3, Caspase-9 in HeLa cells; assay: Western blot of mitochondrial apoptosis markers; format: cell-based, human; details: 0.1 and 0.2 μM, 48 h
Description: HeLa cells were seeded at a density of 5 × 10^6 cells per well and attached for 8 h, and then treated with different concentrations of compound 4d for 48 h. After the treatment, the cells were harvested and washed twice with PBS. The harvested cells were lysed with radio-immunoprecipitation assay (RIPA) lysis buffer (Beyotime Biotech., Nantong, China) with 1% cocktail (Sigma-Aldrich, St. Louis, MO, USA). Whole-cell protein lysates were prepared and centrifuged at 12,000 rpm for 10 min at 4 °C. The total proteins were determined using Bradford reagent (Bio-Rad Laboratories, Inc., Hercules, CA, USA). Exactly 40 μg of protein per lane was separated through sodium dodecyl sulphate-polyacrylamide gel electrophoresis and then transferred onto a polyvinylidene difluoride membrane (Millipore, Bedford, MA, USA). The membranes were incubated with each antibody and detected through immunoblot analysis. All of the antibodies were purchased from Cell signalling Technology, Inc. (Boston, MA, USA) and diluted in accordance with the manufacturer’s instruction. Proteins were visualised using a C-Digit® imaging system (LI-COR, Lincoln, NE, USA).
To further explore whether compound 4d induced apoptosis via the mitochondrial signalling pathway, a number of key protein markers involved in mitochondria-mediated apoptosis were examined by Western blot analysis. The Bcl-2 family members are important regulators of the mitochondrial apoptotic pathway. Two most important members of Bcl-2 family, the anti-apoptotic protein Bcl-2 and the pro-apoptotic protein Bax, are key regulators of this progress. As shown in Figure 6(a), the expression level of Bax was elevated in HeLa cells compared with the control group, whereas the expression level of Bcl-2 was decreased after treatment with compound 4d for 48 h. […] Moreover, cytochrome c is reported as a key protein involved in the activation of the downstream caspases that trigger apoptosis. Caspases are a family of cysteinyl aspartate-specific proteases involved in apoptosis, which can be classified into groups of initiators (caspases 8, 9, and 10) and executioners (caspases 3, 6, and 7)[48]^,[49]. In this assay, we also examined the roles of cytochrome c, caspase-3, and caspase-9 in the cellular response to compound 4d.

SMMC-7721 cells = assay: MTT cytotoxic assay, SMMC-7721; format: cell-based; details: Homo sapiens, 72 h
Description: (§1) Human breast cancer cell line (MDA-MB-231), cervical carcinoma cell line (HeLa), the liver cancer cell line (SMMC-7721) and normal hepatocyte cell line (QSG-7701) were maintained in Dulbecco Modified Eagle Medium (DMEM) containing 4.0 mM L-Glutamine and 4500 mg/L Glucose supplemented with 10% (v/v) foetal bovine serum (FBS) and 100 U/mL penicillin/streptomycin at 37 °C in humidified atmosphere of 5% CO2 and 95% air.
(§2) Exponentially growing MDA-MB-231, Hela and SMMC-7721 cell lines were seeded into 96-well plate for 100 μL and treated with different concentrations of the synthetic compounds for 72 h, and then 10 μL of MTT (10 mg/mL) was added and incubation for 3 ∼ 4 h at 37 °C. The generated purple formazan crystals from viable can be dissolved by adding 100 μL DMSO. The plates were swirled gently for 5 min and quantified by measuring the OD of the plates at the wavelength of 540 nm. Each concentration was repeated in three wells and the same experimental condition was provided for all compounds. The results were expressed as IC50 values with standard deviations, which was defined as the concentration at which 50% survival of cells was discerned. Etoposide was co-assayed as positive control.
(§3) The in vitro cytotoxic activity of derivatives 3a–d, 4a–h, 5a–h, and 6a–h were evaluated by MTT assay against human breast cancer cell line (MDA-MB-231), cervical carcinoma cell line (HeLa), hepatocarcinoma cell line (SMMC-7721) and human normal hepatocyte cell line (QSG-7701). The anticancer drug etoposide was co-assayed as the positive control. All tested compounds were dissolved in DMSO and the stock solutions were diluted by DMEM medium before treatment of the cultured cells.

HeLa cells [2] = assay: Cell cycle analysis (PI staining, flow cytometry); format: cell-based, human; details: 0.2 μM, 48 h
Description: Cell cycle distributions in HeLa cells were determined through PI staining and analysed by flow cytometry. HeLa cells were seeded into a six-well plate at 5 × 10^5 cell/mL and treated with different concentrations of compound 4d for 48 h. After treatment, cells were detached with 0.25% trypsin, harvested by centrifugation, washed twice with ice-cold PBS and then fixed and permeabilised with ice-cold 70% ethanol at 4 °C overnight. Ethanol was removed and the cells were washed twice with ice-cold PBS. After this, the cells were treated with 100 μL of RNase (100 μg/mL) at 37 °C for 30 min, followed by incubation with 400 μL of DNA staining solution propidium iodide (PI) (1 mg/mL) in the dark at 4 °C for 30 min. The samples were analysed by a flow cytometer (Becton-Dickinson FACSCalibur, Totowa, NJ, USA) and data were analysed using the FlowJo software (Becton-Dickinson & Co, Totowa, NJ, USA).
Cell cycle distribution in HeLa cells was examined to determine whether or not compound 4d inhibited the proliferation of these cells through cell cycle arrest. HeLa cells were treated with different concentrations of compound 4d (0, 0.05, 0.1, and 0.2 μM) for 48 h. Cell cycle distribution was investigated by flow cytometric analysis after staining the DNA of the treated cells by PI. […] This phenomenon was accompanied by a decrease in the population of cells in G2/M phase.

HeLa cells [3] = assay: MTT cytotoxic assay, HeLa; format: cell-based; details: Homo sapiens, 72 h
Description: as §1, §2, §3

SMILES: CC(=O)NNC(=O)C12CCC(C)C(C)C1C1=CCC3C4(C)Cc5cc6cc(Cl)ccc6nc5C(C)(C)C4CCC3(C)C1(C)CC2 (stereo not shown) [Compound 4d, N-[5′-chloro-ursa-12-en-(2,3)-quinoline-28-oyl]-acetohydrazide]
- level of caspase-3 [1]: significantly increased
- level of caspase-9 [1]: significantly increased
- ratio of Bax/Bcl-2 [1]: increased in a dose-dependent manner
- expression level of Bax ([1]; compared with control): elevated
- expression level of Bcl-2 ([1]; compared with control): decreased
- level of cytochrome c ([1]; cytosol): significantly increased
- IC50 (SMMC-7721 cells): 0.34 ± 0.03 µM
- population of cells in G2/M phase (HeLa cells [2]; control 25.95): 8.51%
- population of cells in G0/G1 phase (HeLa cells [2]; control 48.32): 63.75%
- IC50 (HeLa cells [3]): 0.08 ± 0.01 µM

— paper PMC6522941, “Design, synthesis, and anticancer evaluation of novel quinoline derivatives of ursolic acid with hydrazide, oxadiazole, and thiadiazole moieties as potent MEK inhibitors” (Journal of Enzyme Inhibition and Medicinal Chemistry, 2019)
